Entries after “also recorded” stand apart in the source; their conditions may differ.

The results in this text go back to patent publication US20230158057A1, “COMPOSITIONS AND METHODS FOR THE TREATMENT OF PAIN” (Duke University, priority 2020, published 2023).

In data set [1] the test system is naïve mice. The data set is described as follows: Von Frey testing of mechanical thresholds in naïve mice (WT and knockout). It counts as in vivo, mouse. As to conditions: naïve mice; for dose exhibiting the largest increase in paw withdrawal thresholds: i.t.; for mechanical sensory thresholds (von Frey): i.t. injection. As to the method: Reflexive-based sensory testing in mice: All behavioral testing in mice was performed in a specialized humidity- and light-controlled mouse behavior facility maintained at 21-24° C., with testing conducted between the hours of 8:00-16:00. Mice were habituated to the testing environment for at least 2 days prior to baseline testing. All tests were performed by an experimenter who was blinded to experimental conditions, including genotypes and drug treatment. For multi-day experiments using STING agonists, mice were tested in the same room at approximately the same time each day. To measure mechanical sensitivity, mice were confined to individual chambers with non-transparent borders on an elevated mesh rack, preventing mice from visualizing or interacting with one another during the testing period. Mouse hindpaws were stimulated with a series of von Frey filaments with logarithmically increasing stiffness (0.02-2.56 g, Stoelting), which was applied perpendicularly to the central plantar surface. We determined the 50% paw withdrawal threshold using the up-down method. […] To test cold sensitivity, mice were again placed on an elevated metal mesh floor in isolated chambers, and a ˜20 μl acetone drop was applied to the central plantar surface of the mouse hindpaw using a pipette.
For the experiments utilizing i.t. 2′3′-cGAMP and 3′3′-cGAMP complexed with Lipofectamine 2000 (ThermoFisher, 11668), 10 μg 2′3′-cGAMP or 3′3′-cGAMP was incubated at room temperature for 30 minutes in sterile PBS with 3 μl Lipofectamine 2000. In this case, the vehicle control was 3 μl Lipofectamine 2000 in PBS, as in a previous study which used this approach. […] For experiments utilizing rabbit anti-IFN-α or -β neutralizing antibodies, a polyclonal rabbit IgG antibody served as the control. Antibodies were utilized in vivo at 300 ng/mouse or in vitro at 300 ng/ml. Paclitaxel was administered via repeated i.p. injections every other day for 4 days at a dose of 2 mg/kg. For the whole mount DRG recordings, young mice (4-6 weeks) were administered a single 6 mg/kg dose one week prior to the experiment. All intrathecal injections were performed under brief anesthesia with 2-2.5% isoflurane. Drugs administered by intrathecal injection were preceded by shaving a small area on the back corresponding to the injection site, followed by spinal puncture using a 30-gauge needle between the L5-L6 levels to deliver a maximum of 5-10 μl into the cerebrospinal fluid. Successful intrathecal injection was always confirmed by a brisk tail-flick upon delivery. For the experiments involving intraplantar (i.pl.) injection, IFN-α was dissolved in sterile saline and administered at the concentrations indicated in the figures in a total volume of 20 μl, administered under 2-2.5% isoflurane anesthesia to minimize animal stress. For these experiments, vehicle (saline) or IFN-α were slowly and carefully expressed into the left dorsal hindpaw of anesthetized mice and allowed to perfuse the tissue for ˜20 seconds prior to removal of the needle. […] Mechanical sensory testing was done anteriorly and care was taken to avoid Von Frey filament stimulation of the injection site.

Data set [2] has as its system tumor-bearing femora. As to the kind of experiment: Bone fractures of tumor-bearing femora on d17 after LLC inoculation. It counts as in vivo, mouse. The following applies: vehicle 87.5%. The procedure:
Development and progression of cancer-induced osteolytic bone destruction frequently leads to bone fracture, which is an important component of SREs in patients with bone metastasis and is associated with decreased overall survival. On d17 after LLC inoculation, mice were euthanized and the tumor bearing femora were collected and the distal tumor-bearing femur where bone destruction occurs was analyzed.

Data set [3] relates to IFN-α. The data set is described as follows: IFN-α ELISA on BMDM culture medium. The data set is classed as cell-based, mouse. As to conditions: 24 h after incubation. As to the method:
ELISA. Mouse high-sensitivity IFN-α ELISA kit (42115-1) and IFN-β ELISA kit (42410-1) were purchased from PBL Assay Science. Mouse CTX-I ELISA kit (AC-06F1) and mouse PINP ELISA kit (AC-33F1) were purchased from Immunodiagnostic Systems. ELISA was performed using culture medium, serum, and bone marrow lysates. Serum was obtained from whole blood that was collected from a submandibular vein via facial vein puncture, coagulated for 30 minutes at room temperature, followed by centrifugation (2,000 ×g for 10 min, 4° C.) and collection of the supernatant (serum). Bone marrow was homogenized in a lysis buffer containing protease inhibitors at 4° C. for 30 minutes. ELISA was conducted in accordance with the manufacturer's instructions. A standard curve was performed for each experiment.
In vitro induction of osteoclastogenesis and TRAP staining. For in vitro drug treatment, the RAW 264.7 cells were incubated with 35 ng/ml RANKL for six days. Isolated bone marrow cells were cultured overnight in α-MEM media containing 10% fetal bovine serum and 1% antibiotic-antimycotic solution. The suspended cells were collected and incubated with 20 ng/ml MCSF for 3 days to obtain bone marrow-derived macrophage (BMDM). The attached cells were further activated by 35 ng/ml RANKL and 20 ng/ml MCSF. Drug treatment was performed in tandem with RANKL. Culture medium and co-cultured reagents were changed every 3 days. […]
(In an ELISA, binding on a coated surface is turned into a signal by an enzyme label.)

Data set [4] has as its system mice with CIPN. The data set is described as follows: Chemotherapy-induced peripheral neuropathy (CIPN) model established with paclitaxel. The data set is classed as in vivo, mouse. The following applies: i.p., 24 h after the 2nd injection. The procedure: Mouse pain models: The chemotherapy-induced peripheral neuropathy (CIPN) model of chronic neuropathic pain was established as we have done previously, using 8-10-week-old CD-1 (strain #022, Charles River) mice injected with paclitaxel (2 mg/kg i.p.) every other day, with 4 injections total. The chronic constriction injury (CCI) model of neuropathic pain was also produced using 8-10-week-old CD-1 under isoflurane anesthesia. Briefly, the right sciatic nerve was exposed above the hip and two ligatures (7-0 Prolene) were placed around the nerve 1 mm apart located proximal to the trifurcation. Ligatures were loosely tied until a subtle flick of the ipsilateral hind limb was observed. CD-1 mice were also used to establish the SNI model, which was generated by tightly ligating the tibial and common peroneal nerves followed by transection and removal of a ˜3 mm portion of the nerve. […] All mice were housed and monitored in accordance with AAALAC standards and Duke IACUC guidelines that pertained to each model.
Reflexive-based sensory testing in mice: All behavioral testing in mice was performed in a specialized humidity- and light-controlled mouse behavior facility maintained at 21-24° C., with testing conducted between the hours of 8:00-16:00. […] We determined the 50% paw withdrawal threshold using the up-down method. […]

For the molecule `Nc1ncnc2c1ncn2[C@@H]1O[C@@H]2COP(=O)([S-])O[C@@H]3[C@H](O)[C@@H](COP([O-])(=S)O[C@H]2[C@H]1O)O[C@H]3n1cnc2c(N)ncnc21.[Na+].[Na+]` (stereo partly drawn) [ADU-S100, (2′-5′)-[P(R)]-5′-O-[(R)-hydroxymercaptophosphinyl]-P-thioadenylyl-adenosine cyclic dinucleotide], in data set [1], the “dose exhibiting the largest increase in paw withdrawal thresholds” value came out at 25 µg and the “mechanical sensory thresholds (von Frey)” value is recorded as “induced dose-dependent antinociception”. The “mice with distal bone fractures” value in data set [2] came to 0%. Also, the “IFN-α levels in the culture medium” value in data set [3] was “drastic increase in IFN-α and IFN-β levels”. In data set [4], the “deaths (toxicity with systemic administration)” value is recorded as “No mice died”.
On to `Cc1ccc2c(=O)c3cccc(CC(=O)O)c3oc2c1C` [DMXAA, 2-(5,6-dimethyl-9-oxo-9H-xanthen-4-yl)acetic acid], for which, in data set [1], the “dose exhibiting the largest increase in paw withdrawal thresholds” value was 10 µg and the “mechanical sensory thresholds (von Frey)” value is listed as “induced dose-dependent antinociception; also recorded: dose-dependent increase in paw withdrawal thresholds”. In addition, the “mice with distal bone fractures” value in data set [2] is given as 12.5%. Moreover, in data set [3], the “IFN-α levels in the culture medium” value is “drastic increase in IFN-α and IFN-β levels”. The “deaths (toxicity with systemic administration)” value in data set [4] is listed as 3 mice.
